Patent US20240092835A1, “NOVEL PEPTIDES CAPABLE OF ALTERING NK CELL ACTIVITY” (Massachusetts Institute of Technology, priority 2022, published 2024)
Where no end group is shown, it is not given here.

How the values were obtained:
CD94/NKG2C = CD94/NKG2C (Homo sapiens, UniProt P26717+Q13241); test: Steady-state surface plasmon resonance of peptide-HLA-E complex with CD94/NKG2C; assay type: binding; details: steady-state SPR
Experimental: Binding affinity of novel peptides linked to HLA-E was determined using surface plasmon resonance (SPR), a methodology used to study protein-protein interactions (Tables 15-19). The peptide-HLA-E complex (generated as a single chain trimer) was immobilized on the sensor chip surface and CD94/NKG2A or CD94/NKG2C were flowed over. Steady-state surface plasmon resonance experiments were performed with a Biacore T200 instrument. CD94/NKG2x in HBS-EP+ buffer was injected as analyte in a concentration range of 0.1 μM to 102.4 μM and flow rate of 10 μL/min at 25° C. Data was fit with Prism 9.4 (GraphPad Software Inc; San Diego CA) to a “one site, specific binding” model. Series S CM5 chips were coupled to neutravidin and utilized. Biotinylated pMHC was immobilized at approximately 400 RU. KD values calculated by Biacore software are reported. Rmax, fit values were calculated by Biacore software. Rmax, theoretical values were calculated using the analyte/ligand mass ratio (0.66) multiplied by the amount of ligand coupled to the chip.

NKG2A−/NKG2C− NK cells = test: NK cell activation markers in control NKG2A-/NKG2C- NK cells incubated with peptide and K562 expressing HLA-E; assay type: cell-based, human
Procedure, shortened: (§1)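 Percent of NK cells positive for cell-surface markers was measured after exposure to K562 targets expressing HLA-E and loaded with human- or HCMV-proteome-derived peptides. A decrease means inhibition, an increase activation; NKG2A−/NKG2C− cells served as controls.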

NKG2A−/NKG2C+ NK cells = test: NK cell activation markers in NKG2A-/NKG2C+ NK cells incubated with peptide and K562 expressing HLA-E (activation); assay type: cell-based, human; details: for effect on NKG2A−/NKG2C+ NK cell activation (in words): K562 expressing HLA-E, CD107a, IFNG, TNF, CCL3; for percentage of CCL3+ NK cells / percentage of CD107+ NK cells / percentage of IFNG+ NK cells / percentage of TNF+ NK cells: NKG2A-/NKG2C+ NK cells, K562/HLA-E
Procedure, shortened: as §1

Chain of CD94/NKG2C (P26717 94-231 limits assumed): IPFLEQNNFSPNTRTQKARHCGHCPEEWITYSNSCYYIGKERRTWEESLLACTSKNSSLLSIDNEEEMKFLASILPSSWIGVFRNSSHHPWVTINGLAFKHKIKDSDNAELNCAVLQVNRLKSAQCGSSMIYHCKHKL
Chain of CD94/NKG2C (Q13241 32-179 limits assumed): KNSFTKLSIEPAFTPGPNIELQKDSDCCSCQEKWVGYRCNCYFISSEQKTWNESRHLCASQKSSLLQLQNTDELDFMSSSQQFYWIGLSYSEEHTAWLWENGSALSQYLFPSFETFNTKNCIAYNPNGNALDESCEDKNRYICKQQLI

Sequence: VNPGRSLFL [human5, VNPGRSLFL]
- Binding of peptide-HLA-E complexes to CD94/NKG2C normalized to a theoretical Rmax (CD94/NKG2C; CD94/NKG2C analyte concentration 51.2 μM): 0.366
- Binding of peptide-HLA-E complexes to CD94/NKG2C normalized to a theoretical Rmax (CD94/NKG2C; CD94/NKG2C analyte concentration 102.4 μM): 0.363
- percentage CCL3+ NK cells (NKG2A−/NKG2C− NK cells; Trial 1): 33%
- percentage CD107+ NK cells (NKG2A−/NKG2C− NK cells; Trial 1): 26.5%
- percentage TNF+ NK cells (NKG2A−/NKG2C− NK cells; Trial 1): 4.11%
- percentage of IFNG+ NK cells (NKG2A−/NKG2C− NK cells; Trial 1): 14.6%
- percentage CCL3+ NK cells (NKG2A−/NKG2C− NK cells; Trial 2): 55.5%
- percentage CD107+ NK cells (NKG2A−/NKG2C− NK cells; Trial 2): 32.5%
- percentage TNF+ NK cells (NKG2A−/NKG2C− NK cells; Trial 2): 10.4%
- percentage of IFNG+ NK cells (NKG2A−/NKG2C− NK cells; Trial 2): 26.3%
- percentage CCL3+ NK cells (NKG2A−/NKG2C− NK cells; Trial 3): 53.4%
- percentage CD107+ NK cells (NKG2A−/NKG2C− NK cells; Trial 3): 48.1%
- percentage TNF+ NK cells (NKG2A−/NKG2C− NK cells; Trial 3): 18%
- percentage of IFNG+ NK cells (NKG2A−/NKG2C− NK cells; Trial 3): 41.4%
- percentage CCL3+ NK cells (NKG2A−/NKG2C− NK cells; Trial 4): 30.6%
- percentage CD107+ NK cells (NKG2A−/NKG2C− NK cells; Trial 4): 27.8%
- percentage TNF+ NK cells (NKG2A−/NKG2C− NK cells; Trial 4): 9.09%
- percentage of IFNG+ NK cells (NKG2A−/NKG2C− NK cells; Trial 4): 18.7%
- percentage CCL3+ NK cells (NKG2A−/NKG2C− NK cells; Trial 5): 23.5%
- percentage CD107+ NK cells (NKG2A−/NKG2C− NK cells; Trial 5): 19%
- percentage TNF+ NK cells (NKG2A−/NKG2C− NK cells; Trial 5): 6.08%
- percentage of IFNG+ NK cells (NKG2A−/NKG2C− NK cells; Trial 5): 14.6%
- percentage CCL3+ NK cells (NKG2A−/NKG2C− NK cells; Trial 6): 22%
- percentage CD107+ NK cells (NKG2A−/NKG2C− NK cells; Trial 6): 20.1%
- percentage TNF+ NK cells (NKG2A−/NKG2C− NK cells; Trial 6): 4.34%
- percentage of IFNG+ NK cells (NKG2A−/NKG2C− NK cells; Trial 6): 10.7%
- effect on NKG2A−/NKG2C+ NK cell activation (in words) (NKG2A−/NKG2C+ NK cells; listed as SEQ ID NO. 3): activate
- effect on NKG2A−/NKG2C+ NK cell activation (in words) (NKG2A−/NKG2C+ NK cells; listed as h5): activated
- percentage of CCL3+ NK cells (NKG2A−/NKG2C+ NK cells; Trial 1): 60.9%
- percentage of CD107+ NK cells (NKG2A−/NKG2C+ NK cells; Trial 1): 59.7%
- percentage of IFNG+ NK cells (NKG2A−/NKG2C+ NK cells; Trial 1): 35.3%
- percentage of TNF+ NK cells (NKG2A−/NKG2C+ NK cells; Trial 1): 17.4%
- percentage of CCL3+ NK cells (NKG2A−/NKG2C+ NK cells; Trial 2): 74.5%
- percentage of CD107+ NK cells (NKG2A−/NKG2C+ NK cells; Trial 2): 61.8%
- percentage of IFNG+ NK cells (NKG2A−/NKG2C+ NK cells; Trial 2): 43.2%
- percentage of TNF+ NK cells (NKG2A−/NKG2C+ NK cells; Trial 2): 23.9%
- percentage of CCL3+ NK cells (NKG2A−/NKG2C+ NK cells; Trial 3): 72.5%
- percentage of CD107+ NK cells (NKG2A−/NKG2C+ NK cells; Trial 3): 72.6%
- percentage of IFNG+ NK cells (NKG2A−/NKG2C+ NK cells; Trial 3): 57.2%
- percentage of TNF+ NK cells (NKG2A−/NKG2C+ NK cells; Trial 3): 42.2%
- percentage of CCL3+ NK cells (NKG2A−/NKG2C+ NK cells; Trial 4): 63.8%
- percentage of CD107+ NK cells (NKG2A−/NKG2C+ NK cells; Trial 4): 64.3%
- percentage of IFNG+ NK cells (NKG2A−/NKG2C+ NK cells; Trial 4): 51.1%
- percentage of TNF+ NK cells (NKG2A−/NKG2C+ NK cells; Trial 4): 36%
- percentage of CCL3+ NK cells (NKG2A−/NKG2C+ NK cells; Trial 5): 69.7%
- percentage of CD107+ NK cells (NKG2A−/NKG2C+ NK cells; Trial 5): 67.6%
- percentage of IFNG+ NK cells (NKG2A−/NKG2C+ NK cells; Trial 5): 53.4%
- percentage of TNF+ NK cells (NKG2A−/NKG2C+ NK cells; Trial 5): 40.4%
- percentage of CCL3+ NK cells (NKG2A−/NKG2C+ NK cells; Trial 6): 47.2%
- percentage of CD107+ NK cells (NKG2A−/NKG2C+ NK cells; Trial 6): 46.8%
- percentage of IFNG+ NK cells (NKG2A−/NKG2C+ NK cells; Trial 6): 28.6%
- percentage of TNF+ NK cells (NKG2A−/NKG2C+ NK cells; Trial 6): 15%
